pIC50: −log10 of the molar value.

For 36 molecules, IC50 results are on record in patent US9549932B2, “2-(morpholin-4-yl)-1,7-naphthyridines” (BAYER PHARMA AKTIENGESELLSCHAFT, priority 2014, dated 2017).

Sequence of full-length human ATR protein (Q13535 other isoform, or with tags, fused parts or gaps): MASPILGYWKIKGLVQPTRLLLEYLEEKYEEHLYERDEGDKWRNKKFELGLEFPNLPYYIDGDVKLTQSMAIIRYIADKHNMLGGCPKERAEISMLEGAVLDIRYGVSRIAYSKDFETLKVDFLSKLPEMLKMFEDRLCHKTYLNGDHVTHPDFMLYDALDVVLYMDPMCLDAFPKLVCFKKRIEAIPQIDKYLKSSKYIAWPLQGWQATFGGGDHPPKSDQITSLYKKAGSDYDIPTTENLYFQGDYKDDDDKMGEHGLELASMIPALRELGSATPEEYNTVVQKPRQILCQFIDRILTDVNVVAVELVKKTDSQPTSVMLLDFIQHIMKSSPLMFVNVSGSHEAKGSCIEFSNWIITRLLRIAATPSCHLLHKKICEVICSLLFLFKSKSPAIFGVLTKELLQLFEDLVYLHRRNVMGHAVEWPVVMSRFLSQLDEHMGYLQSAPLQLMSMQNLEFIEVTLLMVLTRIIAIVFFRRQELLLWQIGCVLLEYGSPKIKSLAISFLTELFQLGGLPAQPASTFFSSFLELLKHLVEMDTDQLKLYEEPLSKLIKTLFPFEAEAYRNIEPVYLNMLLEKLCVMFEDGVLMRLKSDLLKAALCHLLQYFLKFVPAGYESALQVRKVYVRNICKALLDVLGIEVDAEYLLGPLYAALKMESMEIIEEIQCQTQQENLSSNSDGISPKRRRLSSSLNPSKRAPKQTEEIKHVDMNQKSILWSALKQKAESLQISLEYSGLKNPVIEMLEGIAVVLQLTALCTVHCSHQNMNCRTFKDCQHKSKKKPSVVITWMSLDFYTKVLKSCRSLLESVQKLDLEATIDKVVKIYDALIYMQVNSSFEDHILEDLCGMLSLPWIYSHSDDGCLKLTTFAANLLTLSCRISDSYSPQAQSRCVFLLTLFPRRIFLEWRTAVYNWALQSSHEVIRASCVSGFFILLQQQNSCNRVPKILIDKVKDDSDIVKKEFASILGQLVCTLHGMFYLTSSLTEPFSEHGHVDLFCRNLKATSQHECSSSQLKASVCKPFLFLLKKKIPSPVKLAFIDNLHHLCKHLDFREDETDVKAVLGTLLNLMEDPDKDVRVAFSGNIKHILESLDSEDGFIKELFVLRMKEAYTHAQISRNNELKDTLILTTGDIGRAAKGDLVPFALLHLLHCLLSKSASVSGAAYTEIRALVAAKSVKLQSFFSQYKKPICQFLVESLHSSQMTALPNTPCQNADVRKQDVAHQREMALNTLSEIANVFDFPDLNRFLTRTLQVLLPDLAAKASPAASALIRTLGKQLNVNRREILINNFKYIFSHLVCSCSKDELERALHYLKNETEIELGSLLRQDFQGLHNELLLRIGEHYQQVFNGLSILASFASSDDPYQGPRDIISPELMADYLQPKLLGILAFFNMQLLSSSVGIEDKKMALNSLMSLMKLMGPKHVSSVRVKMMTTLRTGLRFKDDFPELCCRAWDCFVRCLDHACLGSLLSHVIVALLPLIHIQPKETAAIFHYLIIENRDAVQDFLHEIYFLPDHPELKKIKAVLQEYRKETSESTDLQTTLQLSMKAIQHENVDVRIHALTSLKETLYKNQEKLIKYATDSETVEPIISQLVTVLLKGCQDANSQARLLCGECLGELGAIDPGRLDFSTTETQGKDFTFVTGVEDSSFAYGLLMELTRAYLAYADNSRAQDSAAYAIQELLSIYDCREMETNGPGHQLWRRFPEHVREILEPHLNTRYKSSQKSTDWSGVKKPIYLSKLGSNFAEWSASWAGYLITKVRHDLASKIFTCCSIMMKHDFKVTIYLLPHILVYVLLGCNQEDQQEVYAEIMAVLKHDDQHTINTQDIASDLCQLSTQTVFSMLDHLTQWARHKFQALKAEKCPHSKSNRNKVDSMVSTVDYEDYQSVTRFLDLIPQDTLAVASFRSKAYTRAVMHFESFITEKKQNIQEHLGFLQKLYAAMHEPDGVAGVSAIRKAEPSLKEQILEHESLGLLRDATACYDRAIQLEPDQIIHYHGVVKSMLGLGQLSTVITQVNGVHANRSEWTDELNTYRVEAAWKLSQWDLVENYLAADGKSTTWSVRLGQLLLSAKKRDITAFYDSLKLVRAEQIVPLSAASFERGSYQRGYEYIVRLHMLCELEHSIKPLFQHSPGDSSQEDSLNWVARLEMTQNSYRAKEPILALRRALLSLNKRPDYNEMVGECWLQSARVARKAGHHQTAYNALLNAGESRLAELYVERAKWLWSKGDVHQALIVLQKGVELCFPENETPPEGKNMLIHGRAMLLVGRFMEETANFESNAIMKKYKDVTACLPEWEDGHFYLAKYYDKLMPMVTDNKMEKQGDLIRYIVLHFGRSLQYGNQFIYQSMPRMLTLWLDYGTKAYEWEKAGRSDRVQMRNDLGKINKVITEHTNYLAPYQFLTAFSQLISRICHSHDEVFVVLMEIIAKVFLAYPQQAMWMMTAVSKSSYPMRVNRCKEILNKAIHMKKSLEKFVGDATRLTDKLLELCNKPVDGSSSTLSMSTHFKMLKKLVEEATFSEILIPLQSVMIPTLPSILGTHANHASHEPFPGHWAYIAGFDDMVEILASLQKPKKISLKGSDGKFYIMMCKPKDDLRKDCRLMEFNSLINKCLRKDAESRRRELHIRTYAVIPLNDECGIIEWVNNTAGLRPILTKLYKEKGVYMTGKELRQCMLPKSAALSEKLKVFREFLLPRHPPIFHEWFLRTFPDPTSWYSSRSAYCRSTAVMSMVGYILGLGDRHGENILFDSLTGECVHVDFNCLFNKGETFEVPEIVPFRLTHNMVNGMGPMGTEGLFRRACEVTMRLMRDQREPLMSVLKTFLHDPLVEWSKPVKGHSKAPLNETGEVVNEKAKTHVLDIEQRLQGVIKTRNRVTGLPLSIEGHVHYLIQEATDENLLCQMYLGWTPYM
Sequence of full-length human ATR protein (Q8WXE1 other isoform, or with tags, fused parts or gaps partner): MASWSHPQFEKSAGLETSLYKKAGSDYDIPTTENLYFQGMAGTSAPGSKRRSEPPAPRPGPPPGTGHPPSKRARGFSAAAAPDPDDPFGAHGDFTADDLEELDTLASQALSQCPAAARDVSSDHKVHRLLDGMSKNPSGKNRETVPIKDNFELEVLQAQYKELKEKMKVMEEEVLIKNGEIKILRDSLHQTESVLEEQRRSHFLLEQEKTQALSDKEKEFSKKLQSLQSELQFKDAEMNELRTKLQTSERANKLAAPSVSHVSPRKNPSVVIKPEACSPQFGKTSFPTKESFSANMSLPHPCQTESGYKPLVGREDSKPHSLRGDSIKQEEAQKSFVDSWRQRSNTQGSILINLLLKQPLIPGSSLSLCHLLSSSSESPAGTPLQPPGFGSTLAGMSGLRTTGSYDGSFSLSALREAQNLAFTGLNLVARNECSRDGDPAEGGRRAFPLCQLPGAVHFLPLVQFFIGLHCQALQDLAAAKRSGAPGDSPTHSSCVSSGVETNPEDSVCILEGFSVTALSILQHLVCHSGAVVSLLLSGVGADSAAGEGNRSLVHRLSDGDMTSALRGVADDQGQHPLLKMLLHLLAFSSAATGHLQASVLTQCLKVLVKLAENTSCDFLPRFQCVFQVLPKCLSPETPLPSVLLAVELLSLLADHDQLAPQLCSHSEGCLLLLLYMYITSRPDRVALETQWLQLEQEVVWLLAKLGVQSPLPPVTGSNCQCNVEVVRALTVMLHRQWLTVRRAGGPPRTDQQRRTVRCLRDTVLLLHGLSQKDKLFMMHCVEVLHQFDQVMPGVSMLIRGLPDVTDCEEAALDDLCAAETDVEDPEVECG

One experiment deals with full-length human ATR protein (Homo sapiens (Human), UniProt Q13535). The experiment in a line: Binding assay ATR (TR-FRET tracer displacement). The settings on record: read-out: ATR binding (tracer A) IC50. Summed up:
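Full-length human GST-ATR co-purified with ATRIP, pre-complexed 30 min at 22 °C with anti-GST-Tb antibody, then pre-bound with compound 10 min. Tracer A or B added (2 µl of 100 nM solution), 30 min at 22 °C.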
In general terms: Time-resolved FRET reads energy transfer from a long-lived donor to a nearby acceptor.
Turning to `COP(=O)(O)c1ccc(-c2cc(N3CCOCC3)nc3c(-c4ccn[nH]4)nccc23)cc1` [Example 181, Methyl hydrogen {4-[2-(morpholin-4-yl)-8-(1H-pyrazol-5-yl)-1,7-naphthyridin-4-yl]phenyl}phosphonate], the pIC50 (as a rule, the negative decadic logarithm of the IC50, by convention in mol/L) is 6.27.

The same experiment, now with this note: tracer A, TR-FRET; read-out: ATR binding (tracer A) IC50.
Take `C[C@@H]1COCCN1c1cc(-c2ccc(F)cn2)c2ccnc(-c3ccn[nH]3)c2n1` [Example 163, 4-(5-fluoropyridin-2-yl)-2-[(3R)-3-methylmorpholin-4-yl]-8-(1H-pyrazol-5-yl)-1,7-naphthyridine]: the pIC50 was 6.97.
As for `Cc1cccc(-c2cc(N3CCOC[C@H]3C)nc3c(-c4ccn[nH]4)nccc23)n1` [Example 164, 2-[(3R)-3-methylmorpholin-4-yl]-4-(6-methylpyridin-2-yl)-8-(1H-pyrazol-5-yl)-1,7-naphthyridine], the pIC50 is 6.79.
Still for that read-out and setting: to `Cc1cccnc1-c1cc(N2CCOC[C@H]2C)nc2c(-c3ccn[nH]3)nccc12` [Example 165, 2-[(3R)-3-methylmorpholin-4-yl]-4-(3-methylpyridin-2-yl)-8-(1H-pyrazol-5-yl)-1,7-naphthyridine] belongs 6.65; to `CC(=O)Nc1ccccc1-c1cc(N2CCOC[C@H]2C)nc2c(-c3ccn[nH]3)nccc12` [Example 166, N-(2-{2-[(3R)-3-methylmorpholin-4-yl]-8-(1H-pyrazol-5-yl)-1,7-naphthyridin-4-yl}phenyl)acetamide], 6.44.
Consider `C[C@@H]1COCCN1c1cc(-c2cccnc2O)c2ccnc(-c3ccn[nH]3)c2n1` [Example 167, 3-{2-[(3R)-3-methylmorpholin-4-yl]-8-(1H-pyrazol-5-yl)-1,7-naphthyridin-4-yl}pyridin-2-ol], for which the pIC50 was 6.39.
The same measure, in the same setting: next, `C[C@@H]1COCCN1c1cc(-c2cccc(C(C)(C)O)c2)c2ccnc(-c3ccn[nH]3)c2n1` [Example 168, 2-(3-{2-[(3R)-3-methylmorpholin-4-yl]-8-(1H-pyrazol-5-yl)-1,7-naphthyridin-4-yl}phenyl)propan-2-ol]: 6.28; `c1cc(-c2nccc3c(N4CCn5ccnc5C4)cc(N4CCOCC4)nc23)[nH]n1` [Example 169, 4-(5,6-dihydroimidazo[1,2-a]pyrazin-7(8H)-yl)-2-(morpholin-4-yl)-8-(1H-pyrazol-5-yl)-1,7-naphthyridine]: 6.94.
Consider `C[C@H]1CN(c2cc(N3CCOCC3)nc3c(-c4ccn[nH]4)nccc23)CCO1` [Example 170, 4-[(2S)-2-methylmorpholin-4-yl]-2-(morpholin-4-yl)-8-(1H-pyrazol-5-yl)-1,7-naphthyridine], for which the pIC50 is 6.77.
On to `C[C@@H]1COCCN1c1cc(OC(F)F)c2ccnc(-c3ccn[nH]3)c2n1` [Example 172, 4-(difluoromethoxy)-2-[(3R)-3-methylmorpholin-4-yl]-8-(1H-pyrazol-5-yl)-1,7-naphthyridine], for which the pIC50 is 7.08.
On to `CC(C)(O)c1cc(N2CCOCC2)nc2c(-c3ccn[nH]3)nccc12` [Example 173, 2-[2-(morpholin-4-yl)-8-(1H-pyrazol-5-yl)-1,7-naphthyridin-4-yl]propan-2-ol], for which the pIC50 was 6.69.
As for `c1cc(-c2nccc3c(N4C5CCC4COC5)cc(N4CCOCC4)nc23)[nH]n1` [Example 174, 2-(morpholin-4-yl)-4-(3-oxa-8-azabicyclo[3.2.1]oct-8-yl)-8-(1H-pyrazol-5-yl)-1,7-naphthyridine], the negative logarithm of the IC50 (pIC50) is 6.67.
Still for that read-out and setting: next, `C[C@@H]1COCCN1c1cc(N2CCCC2)c2ccnc(-c3ccn[nH]3)c2n1` [Example 175, 2-[(3R)-3-methylmorpholin-4-yl]-8-(1H-pyrazol-5-yl)-4-(pyrrolidin-1-yl)-1,7-naphthyridine]: 6.66.
On the same count and under the same terms, next, `O=C1CN(c2cc(N3CCOCC3)nc3c(-c4ccn[nH]4)nccc23)CCN1` [Example 176, 4-[2-(morpholin-4-yl)-8-(1H-pyrazol-5-yl)-1,7-naphthyridin-4-yl]piperazin-2-one]: 6.65; `CP(C)(=O)c1cc(N2CCOCC2)nc2c(-c3ccn[nH]3)nccc12` [Example 177, 4-(dimethylphosphoryl)-2-(morpholin-4-yl)-8-(1H-pyrazol-5-yl)-1,7-naphthyridine]: 6.60.
For the molecule `C[C@@H]1CN(c2cc(N3CCOCC3)nc3c(-c4ccn[nH]4)nccc23)C[C@H](C)N1` [Example 179, 4-[(cis)-3,5-dimethylpiperazin-1-yl]-2-(morpholin-4-yl)-8-(1H-pyrazol-5-yl)-1,7-naphthyridine], the pIC50 is 6.34.
`OC1(C(F)(F)F)CN(c2cc(N3CCOCC3)nc3c(-c4ccn[nH]4)nccc23)C1` [Example 180, 1-[2-(morpholin-4-yl)-8-(1H-pyrazol-5-yl)-1,7-naphthyridin-4-yl]-3-(trifluoromethyl)azetidin-3-ol]: the negative logarithm of the IC50 (pIC50) is 6.31.
Still for that read-out and setting: next, `CN1CCN(c2cc(N3CCOCC3)nc3c(-c4ccn[nH]4)nccc23)CC1` [Example 182, 4-(4-methylpiperazin-1-yl)-2-(morpholin-4-yl)-8-(1H-pyrazol-5-yl)-1,7-naphthyridine]: 6.20; `c1cc(-c2nccc3c(N4C[C@H]5COC[C@H]5C4)cc(N4CCOCC4)nc23)[nH]n1` [Example 183, 2-(morpholin-4-yl)-8-(1H-pyrazol-5-yl)-4-[(3aR,6aS)-tetrahydro-1H-furo[3,4-c]pyrrol-5(3H)-yl]-1,7-naphthyridine]: 6.19; `COC1(C)CN(c2cc(N3CCOCC3)nc3c(-c4ccn[nH]4)nccc23)C1` [Example 184, 4-(3-methoxy-3-methylazetidin-1-yl)-2-(morpholin-4-yl)-8-(1H-pyrazol-5-yl)-1,7-naphthyridine]: 6.12.
On to `CSCc1cc(N2CCOC[C@H]2C)nc2c(-c3ccn[nH]3)nccc12` [Example 186, 2-[(3R)-3-methylmorpholin-4-yl]-4-[(methylsulfanyl)methyl]-8-(1H-pyrazol-5-yl)-1,7-naphthyridine], for which the pIC50 is 7.17.
The same measure, in the same setting: to `Cc1cc(-c2cc(N3CCOCC3)nc3c(-c4ccn[nH]4)nccc23)ccn1` [Example 188, 4-(2-methylpyridin-4-yl)-2-(morpholin-4-yl)-8-(1H-pyrazol-5-yl)-1,7-naphthyridine] belongs 6.60; to `C[C@@H]1COCCN1c1cc(C2(O)CCCCC2)c2ccnc(-c3ccn[nH]3)c2n1` [Example 189, 1-{2-[(3R)-3-methylmorpholin-4-yl]-8-(1H-pyrazol-5-yl)-1,7-naphthyridin-4-yl}cyclohexanol], 7.67.
On the same count and under the same terms, next, `CS(=O)(=NC#N)c1ccc(-c2cc(N3CCOCC3)nc3c(-c4ccn[nH]4)nccc23)cc1` (stereo not drawn) [Example 191, (methyl{4-[2-(morpholin-4-yl)-8-(1H-pyrazol-5-yl)-1,7-naphthyridin-4-yl]phenyl}oxido-λ^6-sulfanylidene)cyanamide]: 7.36.
On the same count and under the same terms, to `CCNC(=O)N=S(C)(=O)c1ccc(-c2cc(N3CCOCC3)nc3c(-c4ccn[nH]4)nccc23)cc1` (stereo not drawn) [Example 192, 1-ethyl-3-(methyl{4-[2-(morpholin-4-yl)-8-(1H-pyrazol-5-yl)-1,7-naphthyridin-4-yl]phenyl}oxido-λ^6-sulfanylidene)urea] belongs 6.94.
For `C[C@@H]1COCCN1c1cc(OCCCN)c2ccnc(-c3ccn[nH]3)c2n1` [Example 193, 3-({2-[(3R)-3-methylmorpholin-4-yl]-8-(1H-pyrazol-5-yl)-1,7-naphthyridin-4-yl}oxy)propan-1-amine], the pIC50 is 6.61.
On the same count and under the same terms, next, `C[C@@H]1COCCN1c1cc(-c2[nH]nnc2C2CC2)c2ccnc(-c3ccn[nH]3)c2n1` [Example 194, 4-(4-cyclopropyl-1H-1,2,3-triazol-5-yl)-2-[(3R)-3-methylmorpholin-4-yl]-8-(1H-pyrazol-5-yl)-1,7-naphthyridine]: 7.42; `CC[S+]([O-])c1cc(N2CCOCC2)nc2c(-c3ccn[nH]3)nccc12` (stereo not drawn) [Example 195, 4-ethylsulfinyl-2-(morpholin-4-yl)-8-(1H-pyrazol-5-yl)-1,7-naphthyridine]: 7.15.
Same read-out and setting: next, `CC(C)[S+]([O-])c1cc(N2CCOCC2)nc2c(-c3ccn[nH]3)nccc12` (stereo not drawn) [Example 196, 2-(morpholin-4-yl)-4-[propan-2-ylsulfinyl]-8-(1H-pyrazol-5-yl)-1,7-naphthyridine]: 7.14; `C[C@@H]1COCCN1c1cc(OCCCS(C)(=O)=O)c2ccnc(-c3ccn[nH]3)c2n1` [Example 197, 2-[(3R)-3-methylmorpholin-4-yl]-4-[3-(methylsulfonyl)propoxy]-8-(1H-pyrazol-5-yl)-1,7-naphthyridine]: 7.14; `O=S(=O)(c1ccccc1)c1cc(N2CCOCC2)nc2c(-c3ccn[nH]3)nccc12` [Example 198, 2-(morpholin-4-yl)-4-(phenylsulfonyl)-8-(1H-pyrazol-5-yl)-1,7-naphthyridine]: 6.53.
Take `CC(C)S(=O)(=O)c1cc(N2CCOCC2)nc2c(-c3ccn[nH]3)nccc12` [Example 199, 2-(morpholin-4-yl)-4-(propan-2-ylsulfonyl)-8-(1H-pyrazol-5-yl)-1,7-naphthyridine]: the pIC50 is 6.86.
Consider `CCS(=O)(=O)c1cc(N2CCOCC2)nc2c(-c3ccn[nH]3)nccc12` [Example 200, 4-(ethylsulfonyl)-2-(morpholin-4-yl)-8-(1H-pyrazol-5-yl)-1,7-naphthyridine], for which the pIC50 was 7.06.
On the same count and under the same terms, to `[O-][S+](c1ccccc1)c1cc(N2CCOCC2)nc2c(-c3ccn[nH]3)nccc12` (stereo not drawn) [Example 201, 2-(morpholin-4-yl)-4-(phenylsulfinyl)-8-(1H-pyrazol-5-yl)-1,7-naphthyridine] belongs 7.40; to `C[S+]([O-])c1cc(N2CCOCC2)nc2c(-c3ccn[nH]3)nccc12` (stereo not drawn) [Example 202, 4-(methylsulfinyl)-2-(morpholin-4-yl)-8-(1H-pyrazol-5-yl)-1,7-naphthyridine], 7.11.
For `C[C@@H]1COCCN1c1cc(C2CC[S+]([O-])CC2)c2ccnc(-c3ccn[nH]3)c2n1` (stereo partly drawn) [Example 203, 2-[(3R)-3-methylmorpholin-4-yl]-4-[1-oxidotetrahydro-2H-thiopyran-4-yl]-8-(1H-pyrazol-5-yl)-1,7-naphthyridine], the pIC50 was 7.95.
